The subject of series [1] is MDA-MB-231 breast cancer cells. In words: MTT cytotoxicity assay, MDA-MB-231 cells. Type of series: cell-based, human. As to conditions: for IC50: 24 h incubation, MTT, average of at least three experiments (±SD); for Cytotoxicity (in words): MDA-MB-231, MTT, 24 h. As to the method: The MDA-MB-231 and MCF-7 human breast cancer cells were purchased from ATCC. The MDA-MB-231 and MCF-7 cells were grown in Dulbecco's modified Eagles' medium (DMEM high glucose) (Capricorn Scientific) at 37°C in 5% CO2 supplemented with 10% fetal bovine serum (Capricorn Scientific). HDF cells were purchased from Merck and were grown in the fibroblast growth medium. All cells were adherent in monolayers and, upon confluence, were washed with phosphate buffer saline (PBS) and harvested by digestion with trypsin-EDTA 0.05% (v/v). The cells were suspended and transferred into new, sterile, culture flasks for maintenance or seeded in sterile test microplates for different assays. All cells were manipulated under aseptic conditions in a flow chamber.
The cells were adherent in monolayers and, upon confluence, were harvested by digestion with trypsin. The cytotoxicity of the complexes against the tumour cells was assessed using the colorimetric assay MTT […], which evaluates the metabolic activity of viable cells. This assay measures the conversion of yellow tetrazolium into purple formazan by an active mitochondrial dehydrogenase in living cells. For this purpose, the cells (10–20 × 10^3 in 200 μL of the medium) were seeded into 96-well plates and incubated in a 5% CO2 incubator at 37°C. The cells were settled for 24 h followed by the addition of a dilution series of the complexes in a medium (200 μL). The complexes were first solubilized in 100% DMSO, given a 10 mM stock solution, and then in a medium within the concentration range of 0.1–100 µM. […] After 24 h of incubation, the treatment solutions were removed by aspiration, and MTT solution (200 μL, 0.5 mg·mL^−1 in PBS) was added to each well. After 3 h at 37°C/5% CO2, the solution was removed, and the purple formazan crystals formed inside the cells were dissolved in DMSO (200 μL) by thorough shaking. The cellular viability was evaluated by measuring the absorbance at 570 nm by using a microplate spectrophotometer. The IC50 values were obtained by dose-response curves using the GraphPad Prism software (vs. 5).
The MDA-MB-231 and MCF-7 human breast cancer cells were purchased from ATCC. MDA-MB-231 and MCF-7 cells were grown in Dulbecco’s modified Eagles’s medium (DMEM high glucose) (Capricorn Scientific) at 37 °C in 5% CO2 supplemented with 10% fetal bovine serum (Capricorn Scientific). All cells were adherent in monolayers and, upon confluence, were washed with phosphate buffer saline (PBS) and harvested by digestion with Trypsin-EDTA 0.05% (v/v). The cells were suspended and transferred into new, sterile, culture flasks, for maintenance or seeded in sterile test microplates for different assays. All cells were manipulated under aseptic conditions in a flow chamber.
The cells were adherent in monolayers and, upon confluency, were harvested by digestion with trypsin. The cytotoxicity of the complexes against the tumour cells was assessed using the colorimetric assay MTT […], which evaluate the metabolic activity of viable cells. This assay measures the conversion of the yellow tetrazolium into purple formazan by an active mitochondrial dehydrogenase in living cells. For this purpose, cells (10-20 × 10^3 in 200 μL of medium) were seeded into 96-well plates and incubated in a 5% CO2 incubator at 37 °C. The cells were settled for 24 h followed by the addition of a dilution series of the complexes in medium (200 μL). The complexes were first solubilized in 100% DMSO, given a 10 mM stock solution, and then in medium within the concentration range of 0.1–100 µM. […] After 24 h of incubation, the treatment solutions were removed by aspiration, and MTT solution (200 μL, 0.5 mg·mL^-1 in PBS) was added to each well. After 3 h at 37 °C/5% CO2, the solution was removed, and the purple formazan crystals formed inside the cells were dissolved in DMSO (200 μL) by thorough shaking. […]
(Formazan colour is commonly taken as a measure of viable cells.)

Series [2] can be described thus: Stability in DMSO-d6 and DMSO-d6/D2O monitored by 31P{1H} NMR. Type of series: physicochemical. As to conditions: room temperature and 37°C, 48 h, 31P{1H} NMR. The source says: The assessment of the biological properties of the complexes requires their dissolution in a cell culture medium which is mainly constituted by water. When the complex is not hydrosoluble enough, the used protocol contemplates preliminary dissolution in DMSO before the addition to the culture medium. Thus, it is important to determine the stability and behaviour of the complexes in both DMSO and water/DMSO mixtures to check whether different species have been formed when dissolved. Dissolutions in DMSO-d6 and DMSO-d6/D2O of the new complexes 8 and 11 were monitored by ^31P{^1H} NMR over time at room temperature and 37°C. The stability studies of the rest of the complexes (1‐7, 9, 10) were published previously. All experiments were performed by a similar procedure: the complex (0.01 g) was introduced into a 5 mm NMR tube and dissolved in 0.5 mL of degassed solvent (DMSO-d6 and a 1 : 1 mixture of DMSO-d6/D2O). The solution was left at room temperature and monitored by ^31P{^1H} NMR first every 15 minutes, and later in longer periods. Stability was also monitored at incubation cell-based assay temperature (37°C).
All compounds were studied for their stability in 100% DMSO-d6 and DMSO-d6/D2O mixture by using NMR spectroscopy in common aerobic conditions. All experiments were performed by a similar procedure: the complex (0.01 g) was introduced into a 5 mm NMR tube and dissolved in 0.5 mL of degassed solvent (DMSO-d6 and a 1:1 mixture of DMSO-d6/D2O). The solution was left at room temperature and monitored by ^31P{^1H} NMR first every 15 minutes, and later in longer time periods. Stability was also monitored at incubation cell-based assays temperature (37 °C).

Some results are limits rather than exact numbers.

In series [1], `CN1CN2C[NH+](C)C[P]([Ru+]([Cl])[P](c3ccccc3)(c3ccccc3)c3ccccc3)(C1)C2.O=S(=O)([O-])C(F)(F)F.c1cc[cH-]c1` [Compound 7, [RuClCp(HdmoPTA)(PPh3)](CF3SO3)] returned an IC50 of 2.5 ± 1.1 µM. Further, the “Fold increase in antiproliferative activity with respect to complex 6” value in series [1] (MDA-MB-231, 24 h) turned out to be 4 fold. Take `C1N2CN3CN1CP(C2)C3` [Compound 1, 1,3,5-triaza-7-phosphaadamantane]: the IC50 in series [1] (Homo sapiens, MDA-MB-231) is above 100 µM. Turning to `C[N+]12CN3CN(C1)C[P]([Ru+]([Cl])[P](c1ccccc1)(c1ccccc1)c1ccccc1)(C3)C2.O=S(=O)([O-])C(F)(F)F.c1cc[cH-]c1` [Compound 6, [RuClCp(PPh3)(mPTA)](CF3SO3)], it took 8.3 ± 1.4 µM to reach half-maximal inhibition in series [1] (IC50). The “Fold increase in cytotoxicity with respect to complex 5” value in series [1] (MDA-MB-231, 24 h) was found to be 7 fold.

Consider `[Cl][Ru+]([P]12CN3CN(CN(C3)C1)C2)[P]12CN3CN(CN(C3)C1)C2.c1cc[cH-]c1` [Compound 4, [RuClCp(PTA)2]], for which, in series [1], the IC50 is above 100 µM and the “Cytotoxicity (in words)” value is recorded as “noncytotoxic”.

With `[Cl][Ru+]([P]12CN3CN(CN(C3)C1)C2)[P](c1ccccc1)(c1ccccc1)c1ccccc1.c1cc[cH-]c1` [Compound 5, [RuClCp(PPh3)(PTA)]], in series [1], the midpoint of inhibition, the IC50, lay at 60 ± 19 µM and the “Cytotoxicity (in words)” value is “Moderate cytotoxicity”. With `CN1CN2C[NH+](C)C[P]([Ru+2]([P](c3ccccc3)(c3ccccc3)c3ccccc3)[S](C)(C)=O)(C1)C2.O=S(=O)([O-])C(F)(F)F.O=S(=O)([O-])C(F)(F)F.c1cc[cH-]c1` [Compound 8, [RuCp(DMSO-κS)(HdmoPTA)(PPh3)](CF3SO3)2], the IC50 in series [1] is 15 ± 2.2 µM. Also, in series [2], the “Stability in DMSO-d6” value is on record as “stable” and the “Stability in DMSO-d6/D2O (1:1)” value was “stable”. On to `C[N+]12CN3CP(C1)C[N+](C)(C3)C2` [Compound 3, N,N′-dimethyl-1,3,5-triaza-7-phosphaadamantane], for which the IC50 in series [1] (Homo sapiens, MDA-MB-231) is above 100 µM. As to `C[N+]12CN3CN(CP(C3)C1)C2` [Compound 2, N-methyl-1,3,5-triaza-7-phosphaadamantane], the IC50 in series [1] (Homo sapiens, MDA-MB-231) is above 100 µM.

The term IC50 denotes the concentration that inhibits the measured activity by half. Low values mean higher potency, high ones lower potency.

(Values after PMC10555500, “Evaluation of the Antiproliferative Properties of CpRu Complexes Containing N-Methylated Triazaphosphaadamantane Derivatives” (Bioinorganic Chemistry and Applications, 2023).)
